In data set [1] the target is T1, ribose-phosphate pyrophosphokinase (RPPK) (Mycobacterium tuberculosis, UniProt P9WKE3).
T1 construct: gene prs
The data set is described as follows: HPLC of AMP formation, inhibition at rising ADP. Type of data set: biochemical. The conditions noted are these: inhibitor; assay per b47: R-5-P, ATP, MgCl2, 40 mM KH2PO4, Tris-HCl pH 8.0, 37 °C.

In data set [2] the target is T2, nicotinamide phosphoribosyltransferase (NAMPT) (Chitinophaga pinensis, UniProt A0A979FZM9).
T2 construct: gene Cpin_0607
T2 sequence (A0A979FZM9 1-471): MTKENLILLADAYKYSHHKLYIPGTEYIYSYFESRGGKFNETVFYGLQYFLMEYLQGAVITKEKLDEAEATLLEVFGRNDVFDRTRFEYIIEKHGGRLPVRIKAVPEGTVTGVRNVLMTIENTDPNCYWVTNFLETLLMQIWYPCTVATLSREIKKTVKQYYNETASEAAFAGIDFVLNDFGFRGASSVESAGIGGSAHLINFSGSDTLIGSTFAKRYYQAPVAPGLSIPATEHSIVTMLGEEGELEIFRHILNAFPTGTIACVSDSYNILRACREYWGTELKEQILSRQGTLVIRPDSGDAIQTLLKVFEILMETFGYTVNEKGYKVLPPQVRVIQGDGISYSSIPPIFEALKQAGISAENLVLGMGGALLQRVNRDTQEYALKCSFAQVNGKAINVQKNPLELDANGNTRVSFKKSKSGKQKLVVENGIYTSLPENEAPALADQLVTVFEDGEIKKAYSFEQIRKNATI
The data set is described as follows: HPLC of NMN formation. Type of data set: biochemical. The conditions noted are these: PRPP made in situ by RPPK, 5 mM MgCl2, pH 8.0, 37 °C.

Substrate in the data set “HPLC of NMN depletion”: NC(=O)c1ccc[n+]([C@@H]2O[C@H](COP(=O)(O)O)[C@@H](O)[C@H]2O)c1
The data set is described as follows: HPLC of NMN depletion. The note with it: assay per b51: ATP, MgCl2, 40 mM KH2PO4, 50 mM Tris-HCl pH 8.0, 37 °C, kinetic details in supplement. Type of data set: biochemical, Acinetobacter baylyi.

T1 sequence (P9WKE3 whole entry): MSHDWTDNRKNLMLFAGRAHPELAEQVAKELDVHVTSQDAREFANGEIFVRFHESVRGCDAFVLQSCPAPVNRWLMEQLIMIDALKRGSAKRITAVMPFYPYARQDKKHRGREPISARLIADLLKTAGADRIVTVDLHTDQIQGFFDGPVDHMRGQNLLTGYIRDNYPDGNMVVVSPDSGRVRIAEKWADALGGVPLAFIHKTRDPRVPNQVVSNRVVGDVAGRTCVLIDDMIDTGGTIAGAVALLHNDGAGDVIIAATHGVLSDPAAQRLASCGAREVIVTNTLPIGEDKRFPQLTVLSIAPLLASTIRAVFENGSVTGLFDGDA

Consider `Nc1ncnc2c1ncn2[C@@H]1O[C@H](COP(=O)(O)OP(=O)(O)O)[C@@H](O)[C@H]1O` [ADP], for which the “HPLC of AMP formation, inhibition at rising ADP” value in data set [1] is reported as “ADP was found to significantly inhibit RPPK activity”. Turning to `O=P(O)(O)OC[C@H]1O[C@H](OP(=O)(O)OP(=O)(O)O)[C@H](O)[C@@H]1O` [PRPP], in data set [2], the “HPLC of NMN formation” value was “PRPP, an enzyme cascade was employed to synthesize PRPP for assessing NAMPT activity”.

B1: nicotinamide mononucleotide adenylyltransferase (NMNAT) (Acinetobacter baylyi ADP1) (protein)
chain: MYKFDYLVFIGRFQPFHFAHLQTIQIALQQSREVIIALGSAQPERNIKNPFLAEERQKMILANFSAEDQARIHFVNIIDVYNDQKWVEQVKQLVNAIIESRSHVGLIGHFKDESSYYLKLFPEWTMVELESLKESMSATPMREAYYEGKIIESAFPEGTIQFLKTFQDSEIYKQLQQKYRAQDSSNLI
Turning to B1, the Km (usually the concentration of substrate that gives half-maximal velocity) in the data set “HPLC of NMN depletion” was found to be 396.6 ± 59.6 µM.

These data come from article PMC12168924, “Construction of the reduced nicotinamide adenine dinucleotide salvage pathway in artificial cells and its application in amino acid synthesis” (Chemical Science, 2025).
